Here are results for 4 molecules from patent publication US20200001104A1, “SCALABLE MAGNETOMECHANICAL SCHEMES AND DEVICES FOR REMOTE CONTROL OF MECHANOSENSITIVE CELLS” (Massachusetts Institute of Technology, priority 2018, published 2020).

Entries after “also recorded” stand apart in the source; their conditions may differ. Like-named read-outs stand apart in the source and are kept apart here.

The test system of the test is dorsal root ganglion (DRG) explant cultures. The experiment in a line: Magnetomechanical stimulation in the presence of channel blockers, calcium imaging. The format is cell-based, rat.
Where [1] appears, read: cells incubated with blocker, all doses, one-way ANOVA, n=6.
Where [2] appears, read: blocker at 100 μM, MNDs plus MF.

With `CCCCCC/C=C\CCCCCCCC(=O)O` [PA, palmitoleic acid], the “Ca2+ response to magnetomechanical stimulation” value (blocker at 30-300 μM, MNDs plus MF) is listed as “failed to block; also recorded: do not affect”. Moreover, under setting [1], the “number of responders to magnetomechanical stimulation” value (“number of responders” for short) is “No significant difference”.
For `[Cl][Gd]([Cl])[Cl]` [Gd^3+, Gadolinium(III) (Gd^3+) chloride], the “Ca2+ response to magnetomechanical stimulation” value was “enhanced response; also recorded: increases Ca^2+ influx” under setting [2] and “reduced response; also recorded: nearly eliminates Ca^2+ activity” (blocker at 1000 μM (1 mM), MNDs plus MF). Also, for the setting “blocker at 1 mM, one-way ANOVA and Tukey's HSD, n=6”, the “fraction of cells responding to magnetomechanical stimulation” value is “significantly lower fraction”.
For `NC1=N[C@H](O)[C@H]2[C@H]3O[C@]4(O)O[C@@H]([C@@H](O)[C@@]2(N1)[C@@H]4O)[C@]3(O)CO` [TTX, tetrodotoxin], the “Ca2+ response to magnetomechanical stimulation” value is on record as “failed to block; also recorded: do not affect” and the “number of responders” value is “No significant difference”.
Regarding ruthenium red [RuR], the “Ca2+ response (ΔF/F0) to magnetomechanical stimulation” value (blocker at 10 μM, MNDs plus MF) is reported as “larger ΔF/F0 changes; also recorded: increases”. Besides, under setting [2], the “Ca2+ response to magnetomechanical stimulation” value was “returns to baseline levels”. Further, under setting [1], the “number of responders” value is reported as “No significant difference”.
